A word on the IC50: it is the concentration needed to halve the response being measured.

The results in this text go back to patent EP4667458A1 (Kanaph Therapeutics Inc., priority 2023, dated 2024).

This experiment addresses T1, KRAS^G12C::SOS1 (Homo sapiens, UniProt Q07889).
T1 sequence (Q07889 1-1333): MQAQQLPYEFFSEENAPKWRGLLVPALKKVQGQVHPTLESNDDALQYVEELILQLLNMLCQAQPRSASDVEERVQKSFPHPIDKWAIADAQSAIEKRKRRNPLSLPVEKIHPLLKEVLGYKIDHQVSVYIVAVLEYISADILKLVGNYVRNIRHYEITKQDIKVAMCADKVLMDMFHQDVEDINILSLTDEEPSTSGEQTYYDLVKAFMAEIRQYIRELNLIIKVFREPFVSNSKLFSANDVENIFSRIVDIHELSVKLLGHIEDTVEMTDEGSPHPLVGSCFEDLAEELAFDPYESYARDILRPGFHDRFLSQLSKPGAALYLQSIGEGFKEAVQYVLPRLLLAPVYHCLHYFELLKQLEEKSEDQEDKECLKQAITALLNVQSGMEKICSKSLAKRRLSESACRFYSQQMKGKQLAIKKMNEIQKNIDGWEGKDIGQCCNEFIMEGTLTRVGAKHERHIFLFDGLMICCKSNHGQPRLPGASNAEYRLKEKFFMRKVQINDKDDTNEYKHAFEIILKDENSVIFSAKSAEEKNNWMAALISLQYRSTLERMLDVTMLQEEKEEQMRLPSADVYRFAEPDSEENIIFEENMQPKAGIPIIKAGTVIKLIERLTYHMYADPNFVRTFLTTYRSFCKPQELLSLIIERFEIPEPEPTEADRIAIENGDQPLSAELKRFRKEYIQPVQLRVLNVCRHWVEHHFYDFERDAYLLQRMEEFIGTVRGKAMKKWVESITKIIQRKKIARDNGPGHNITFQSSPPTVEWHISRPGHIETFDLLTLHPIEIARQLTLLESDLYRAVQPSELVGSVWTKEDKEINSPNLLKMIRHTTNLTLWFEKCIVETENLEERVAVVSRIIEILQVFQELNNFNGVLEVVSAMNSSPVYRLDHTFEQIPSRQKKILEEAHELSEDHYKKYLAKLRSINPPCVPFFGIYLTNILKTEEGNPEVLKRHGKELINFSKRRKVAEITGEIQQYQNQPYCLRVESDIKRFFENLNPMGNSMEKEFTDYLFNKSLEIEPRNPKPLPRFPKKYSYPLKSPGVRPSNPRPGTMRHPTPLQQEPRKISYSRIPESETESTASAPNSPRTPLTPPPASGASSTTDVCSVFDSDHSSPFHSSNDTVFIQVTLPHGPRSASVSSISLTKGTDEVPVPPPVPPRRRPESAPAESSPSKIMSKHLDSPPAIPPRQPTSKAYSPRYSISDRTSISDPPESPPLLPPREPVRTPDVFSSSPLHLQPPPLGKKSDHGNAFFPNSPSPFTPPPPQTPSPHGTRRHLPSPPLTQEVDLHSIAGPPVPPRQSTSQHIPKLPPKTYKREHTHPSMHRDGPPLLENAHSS
The experiment in a line: KRAS G12C::SOS1 protein-protein interaction (PPI) inhibition assay (HTRF binding kit).
Experimental: Protein-protein interaction between SOS1 and KRAS^G12C was detected using KRAS G12C/SOS1 binding kit from CISBIO (64KRASG12PEH, CISBIO, FRANCE) according to the manufacturer's assay method. Briefly, the maximum concentration of an inhibitor sample was set to be 3 µM, and the inhibitor sample was diluted 7 times by 1/3, and samples having a total of 8 concentrations were prepared. In HTRF (Homogeneous Time-Resolved Fluorescence) exclusive 96-well low-volume white plate (66PL96005, CISBIO, FRANCE), 2 µL of an inhibitor sample prepared for each concentration, 5 µL of a mixed solution of Tag1-labeled KRAS^G12C protein and GTP diluted with the dilution solution provided by the manufacturer, and 5 µL of Tag2 labeled SOS1 protein were mixed, and added with 8 µL of a diluted solution where anti-Tag1 KRAS^G12C XL665 (HTRF acceptor) labeled antibody and anti-Tag2 SOS1 Terbium cryptate (HTRF donor) labeled antibody were mixed in an equal ratio and incubated at room temperature for 2 h.
In the case of `CNCc1ccc(F)cc1-c1ccc([C@@H](C)NC(=O)c2ccc(=O)n(-c3ccccc3F)n2)s1` [Example 286, N-[(1R)-1-[5-[5-fluoro-2-(methylaminomethyl)phenyl]-2-thienyl]ethyl]-1-(2-fluorophenyl)-6-oxo-pyridazine-3-carboxamide], the IC50 was < 1000 nM.

For `CNCc1ccc(F)cc1-c1ccc([C@@H](C)NC(=O)c2ccc(=O)n(-c3ccccc3F)c2)s1` [Example 287, N-[(1R)-1-[5-[5-fluoro-2-(methylaminomethyl)phenyl]-2-thienyl]ethyl]-1-(2-fluorophenyl)-6-oxo-pyridine-3-carboxamide], the IC50 is < 1000 nM.

Take `CNCc1ccc(F)cc1-c1ccc([C@@H](C)NC(=O)c2ccc(=O)n(-c3cccnc3F)n2)s1` [Example 288, N-[(1R)-1-[5-[5-fluoro-2-(methylaminomethyl)phenyl]-2-thienyl]ethyl]-1-(2-fluoro-3-pyridyl)-6-oxo-pyridazine-3-carboxamide]: the IC50 was < 1000 nM.

As to `CCNCc1ccc(F)cc1-c1ccc([C@@H](C)NC(=O)c2ccc(=O)n(-c3cccnc3F)n2)s1` [Example 289, N-[(1R)-1-[5-[2-(ethylaminomethyl)-5-fluorophenyl]-2-thienyl]ethyl]-1-(2-fluoro-3-pyridyl)-6-oxo-pyridazine-3-carboxamide], the IC50 was < 1000 nM.

On to `CNCc1ccccc1-c1ccc([C@@H](C)NC(=O)c2nn(-c3cnn(C)c3)c(=O)c3ccsc23)s1` [Example 290, N-[(1R)-1-[5-[2-(methylaminomethyl)phenyl]-2-thienyl]ethyl]-5-(1-methylpyrazol-4-yl)-4-oxo-thieno[2,3-d]pyridazine-7-carboxamide], for which the IC50 was < 1000 nM.

As to `CNCc1sccc1-c1cccc([C@@H](C)NC(=O)c2ccc(=O)n(-c3ccccc3F)n2)c1` [Example 291, 1-(2-fluorophenyl)-N-[(1R)-1-[3-[2-(methylaminomethyl)-3-thienyl]phenyl]ethyl]-6-oxo-pyridazine-3-carboxamide], the IC50 is < 1000 nM.

Regarding `CNCc1ccc(Cl)cc1-c1ccc([C@@H](C)NC(=O)c2ccc(=O)n(-c3cnn(C)c3)n2)s1` [Example 292, (R)-N-(1-(5-(5-chloro-2-((methylamino)methyl)phenyl)thiophen-2-yl)ethyl)-1-(1-methyl-1H-pyrazol-4-yl)-6-oxo-1,6-dihydropyridazine-3-carboxamide], the IC50 is < 1000 nM.

Consider `CNCc1cccc(F)c1-c1ccc([C@@H](C)NC(=O)c2ccc(=O)n(-c3cccnc3F)n2)s1` [Example 293, N-[(1R)-1-[5-[2-fluoro-6-(methylaminomethyl)phenyl]-2-thienyl]ethyl]-1-(2-fluoro-3-pyridyl)-6-oxo-pyridazine-3-carboxamide], for which the IC50 was < 1000 nM.

Turning to `CNCc1ccsc1-c1cccc([C@@H](C)NC(=O)c2ccc(=O)n(-c3ccccc3F)n2)c1` [Example 294, 1-(2-fluorophenyl)-N-[(1R)-1-[3-[3-(methylaminomethyl)-2-thienyl]phenyl]ethyl]-6-oxo-pyridazine-3-carboxamide], the IC50 was < 1000 nM.

As for `CNCc1ccc(F)cc1-c1ccc([C@@H](C)NC(=O)c2ccc(=O)n(-c3cnn(C)c3)n2)s1` [Example 296, N-[(1R)-1-[5-[5-fluoro-2-(methylaminomethyl)phenyl]-2-thienyl]ethyl]-1-(1-methylpyrazol-4-yl)-6-oxo-pyridazine-3-carboxamide], the IC50 is < 1000 nM.

With `CNCc1ccc(F)cc1-c1ccc([C@@H](C)NC(=O)c2ccc(=O)n(-c3cccc(C(=O)N(C)C)c3F)n2)s1` [Example 297, 1-[3-(dimethylcarbamoyl)-2-fluoro-phenyl]-N-[(1R)-1-[5-[5-fluoro-2-(methylaminomethyl)phenyl]-2-thienyl]ethyl]-6-oxo-pyridazine-3-carboxamide], the IC50 was < 1000 nM.

For `CNCc1ccccc1-c1ccc([C@@H](C)NC(=O)c2ccc(=O)n(-c3ccccc3F)n2)s1` [Example 298, 1-(2-fluorophenyl)-N-[(1R)-1-[5-[2-(methylaminomethyl)phenyl]-2-thienyl]ethyl]-6-oxo-pyridazine-3-carboxamide], the IC50 is < 1000 nM.

As to `C[C@@H](NC(=O)c1ccc(=O)n(-c2ccccc2F)n1)c1ccc(-c2ccccc2CO)s1` [Example 299, 1-(2-fluorophenyl)-N-[(1R)-1-[5-[2-(hydroxymethyl)phenyl]-2-thienyl]ethyl]-6-oxo-pyridazine-3-carboxamide], the IC50 was in the range of 1000 to 10000 nM.

As for `C[C@@H](NC(=O)c1ccc(=O)n(-c2ccccc2F)n1)c1ccc(-c2cc(F)ccc2CNCCO)s1` [Example 300, N-[(1R)-1-[5-[5-fluoro-2-[(2-hydroxyethylamino)methyl]phenyl]-2-thienyl]ethyl]-1-(2-fluorophenyl)-6-oxo-pyridazine-3-carboxamide], the 50% inhibitory concentration (IC50) was < 1000 nM.

Take `CNCc1ccc(Cl)cc1-c1ccc([C@@H](C)NC(=O)c2ccc(=O)n(C3CCN(C(C)=O)CC3)n2)s1` [Example 301, 1-(1-acetyl-4-piperidyl)-N-[(1R)-1-[5-[5-chloro-2-(methylaminomethyl)phenyl]-2-thienyl]ethyl]-6-oxo-pyridazine-3-carboxamide]: the IC50 is < 1000 nM.

For `CNCc1ccc(F)cc1-c1ccc([C@@H](C)NC(=O)c2ccc(=O)n(-c3cccnc3NC)n2)s1` [Example 302, N-[(1R)-1-[5-[5-fluoro-2-(methylaminomethyl)phenyl]-2-thienyl]ethyl]-1-[2-(methylamino)-3-pyridyl]-6-oxo-pyridazine-3-carboxamide], the IC50 is < 1000 nM.

Consider `C[C@@H](NC(=O)c1ccc(=O)n(-c2ccccc2F)n1)c1cccc(-n2ccccc2=O)c1` [Example 303, 1-(2-fluorophenyl)-6-oxo-N-[(1R)-1-[3-(2-oxo-1-pyridyl)phenyl]ethyl]pyridazine-3-carboxamide], for which the concentration for half-maximal inhibition (IC50) is > 10000 nM.

As for `C[C@@H](NC(=O)c1ccc(=O)n(-c2ccccc2F)n1)c1cccc(-n2ccc(=O)cc2)c1` [Example 304], the IC50 is > 10000 nM.

With `C[C@@H](NC(=O)c1ccc(=O)n(-c2ccccc2F)n1)c1cccc(Oc2cccnc2)c1` [Example 305, 1-(2-fluorophenyl)-6-oxo-N-[(1R)-1-[3-(3-pyridyloxy)phenyl]ethyl]pyridazine-3-carboxamide], the IC50 is > 10000 nM.

`C[C@@H](NC(=O)c1ccc(=O)n(-c2ccccc2F)n1)c1cccc(Oc2ccccc2)c1` [Example 306, 1-(2-fluorophenyl)-6-oxo-N-[(1R)-1-(3-phenoxyphenyl)ethyl]pyridazine-3-carboxamide]: the half-maximal inhibitory concentration (IC50) was > 10000 nM.

Turning to `C[C@@H](NC(=O)c1nn(-c2cnn(C)c2)c(=O)c2cc[nH]c12)c1cc(N)cc(C(F)(F)F)c1` [Example 307, N-[(1R)-1-[3-amino-5-(trifluoromethyl)phenyl]ethyl]-5-(1-methylpyrazol-4-yl)-4-oxo-1H-pyrrolo[2,3-d]pyridazine-7-carboxamide], the IC50 was < 1000 nM.

As to `C[C@@H](NC(=O)c1nn(-c2ccccc2)c(=O)c2cc[nH]c12)c1cc(N)cc(C(F)(F)F)c1` [Example 308, N-[(1R)-1-[3-amino-5-(trifluoromethyl)phenyl]ethyl]-4-oxo-5-phenyl-1H-pyrrolo [2,3-d] pyridazine-7-carboxamide], the IC50 is < 1000 nM.
